According to US9403791B1, “Coumarin derivatives for cancer therapy” (Wellesley College, priority 2013, dated 2016):

Columns and labels:
[1] = test system: pancreatic cancer cell line PANC-1; conditions: within 24 hours; cited from earlier work
[2] = test system: PANC-1 cells; assay: In vitro cytotoxicity assay (WST-8 cell viability), nutrient rich media; format: cell-based
Method: (§1) PANC-1 cells, ranging from passage numbers 30-36 and 40-45, were seeded in 96-well plates at a density of 2.5×10^4 cells per well and incubated in fresh Dulbecco's modified Eagle's medium (DMEM, Sigma Aldrich) at 37° C. and 5% CO2 for 24 hours. Cells were then washed with PBS (Sigma Aldrich) and then subjected to the addition of either DMEM or nutrient deprived media (absence of glucose, amino acid and serum). Serially diluted coumarin compounds were added to the cells followed by a 24-hour incubation at 37° C. and 5% CO2. Cell morphology was then observed under an inverted microscope. Cells were then washed with PBS, and fresh DMEM and 10% WST-8 cell counting kit solution (Dojindo Molecular Technologies) were added to each well. The cells were incubated for 3-hours at 37° C. and 5% CO2. Absorbance values were measured using a plate reader at 450 nm, and cell viability was calculated using the following equation % Cell viability=[{Abstest sample−Absblank}/{Abscontrol−Absblank}]*100. The cell viability of compounds 2, 3 and 4 is seen in FIG. 1a.
The assay detailed above was performed additional times and results were obtained. Briefly, PANC-1 cells, ranging from passage numbers 30-36 and 40-45, were seeded in 96-well plates at a density of 2.5×10^4 cells per well density and incubated in fresh Dulbecco's modified Eagle's medium (DMEM, Sigma Aldrich) at 37° C., 5% CO2 for 24 hours. Cells were then washed with PBS (Sigma Aldrich) and then subjected to the addition of either nutrient rich media (NRM) or nutrient deprived media (NDM). […] Absorbance values were measured with a plate reader at 450 nm, and cell viability was calculated using the equation % Cell viability=[{Abstest sample−Absblank}/{Abscontrol−Absblank}]*100. The cell viability of compounds 2, 3 and 4 (e.g., viability of cells following treatment with compounds 2, 3, or 4 was assessed) is shown in FIG. 1b, and is consistent with the results shown in FIG. 1a. LC50 values were determined and are as follows.

[3] = test system: PANC-1 cells; assay: In vitro cytotoxicity assay (WST-8 cell viability), nutrient deprived media; format: cell-based; conditions: for CC50: Homo sapiens, PANC-1 cells, 24-hour incubation, WST-8 cell counting kit, nutrient deprived media (medium not restated at table), read-out: LC50 (the source's name)
Method: as §1
The assay detailed above was performed additional times and results were obtained. Briefly, PANC-1 cells, ranging from passage numbers 30-36 and 40-45, were seeded in 96-well plates at a density of 2.5×10^4 cells per well density and incubated in fresh Dulbecco's modified Eagle's medium (DMEM, Sigma Aldrich) at 37° C., 5% CO2 for 24 hours. Cells were then washed with PBS (Sigma Aldrich) and then subjected to the addition of either nutrient rich media (NRM) or nutrient deprived media (NDM). Serially diluted coumarin compounds (5.5% DMSO in NDM) were added to the cells followed by a 24-hour incubation at 37° C., 5% CO2. Cell morphology was then observed under an inverted microscope. Cells were then washed with PBS, and fresh DMEM and 10% WST-8 cell counting kit (Dojindo Molecular Technologies) were added for a 3-hour incubation at 37° C., 5% CO2. Absorbance values were measured with a plate reader at 450 nm, and cell viability was calculated using the equation % Cell viability=[{Abstest sample−Absblank}/{Abscontrol−Absblank}]*100. The cell viability of compounds 2, 3 and 4 (e.g., viability of cells following treatment with compounds 2, 3, or 4 was assessed) is shown in FIG. 1b, and is consistent with the results shown in FIG. 1a. LC50 values were determined and are as follows.

[4] = test system: PANC-1 cells; assay: Morphological change observation under inverted microscope, nutrient-deprived conditions; format: cell-based; conditions: 6.25 μM, 12.5 μM, and 25 μM, 24 hour incubation
Method: as §1, with “Cells were then washed with PBS, and fresh DMEM and 10% WST-8 cell counting kit solution (Dojindo Molecular Technologies) were added to each well. The cells were incubated for 3-hours at 37° C. and 5% CO2.” left out, “The cell viability of compounds 2, 3 and 4 is seen in FIG. 1a.” left out
The assay detailed above was performed additional times and results were obtained. […] Absorbance values were measured with a plate reader at 450 nm, and cell viability was calculated using the equation % Cell viability=[{Abstest sample−Absblank}/{Abscontrol−Absblank}]*100. The cell viability of compounds 2, 3 and 4 (e.g., viability of cells following treatment with compounds 2, 3, or 4 was assessed) is shown in FIG. 1b, and is consistent with the results shown in FIG. 1a. LC50 values were determined and are as follows.

SMILES	cytotoxicity against PANC-1 under nutrient starvation conditions [1]	cytotoxic activity when cells cultured under nutrient-rich conditions [2]	CC50 [3] [µM]	cytotoxicity towards PANC-1 cells under nutrient starvation conditions [3]	morphological changes to PANC-1 cells [4]
CC(C)(OC(=O)C=Cc1ccc(O)cc1)C1Cc2c(ccc3ccc(=O)oc23)O1 (centres unmarked) [Angelmarin, 11-O-(p-hydroxy-cinnamoyl) columbianetin]	exhibit cytotoxicity	–	–	–	–
CC(C)=CCOc1ccc2oc(=O)ccc2c1 [Compound 2, 6-((3-methylbut-2-en-1-yl)oxy)-2H-chromen-2-one]	–	no significant cytotoxic activity	> 100	preferential cytotoxicity	–
CC(C)=CCC/C(C)=C/COc1ccc2oc(=O)ccc2c1 [Compound 3, (E)-6-((3,7-dimethylocta-2,6-dien-1-yl)oxy)-2H-chromen-2-one]	–	no significant cytotoxic activity	12	preferential cytotoxicity	–
CC(C)=CCC/C(C)=C/CC/C(C)=C/COc1ccc2oc(=O)ccc2c1 [Compound 4, 6-(((2E,6E)-3,7,11-trimethyldodeca-2,6,10-trien-1-yl)oxy)-2H-chromen-2-one]	–	no significant cytotoxic activity	4	preferential cytotoxicity	induced apoptosis-like morphological changes
